Source: patent US5512573A, “Use of phthaloylhydrazide derivatives as anti-hypoxic and defensive agents” (priority 1993, dated 1996)
Structures can show the parent of a compound that is named as a salt.

How the values were obtained:
[1] = tested on: hypoxia in mice; experiment: Example 1: resistance of mice to hypoxia (altitude of 10,400 meters); assay type: in vivo; conditions: control 41±2.5, sodium salt at 60 to 80 mg/kg
Protocol: We assessed the pharmacological activity on the basis of the resistance of the animals to hypoxia. […] We administered the drug intravenously in doses of 10 to 300 mg, in 0.1 ml of physiological solution. In some cases, because of poor solubility, we injected the derivatives in the form of suspensions. The control animals received 0.1 ml of physiological solution.

[2] = tested on: myocardial ischemia in rats; experiment: Example 3: myocardial ischemia with restored circulation in rats; assay type: in vivo
Protocol: Experiments were performed on 60 previously prepared rats. Thirty days before the start of the main experiment, a part of the coronary artery was tied off.
Next, after having supplied light anesthesia, we created by means of the obstruction of the vessel a massive hearth of myocardial ischemia.
We administered the sodium salt intravenously in doses of 30, 100, 200 and 250 mg per kilogram of body weight, immediately after having released the tie. In the control group, the rats were administered a physiological solution, while the test group was given the antioxidant Dibunolo (20% oily solution in a dose of 30 mg/kg).

[3] = tested on: ethane and pentane contents of the air inhaled by the animals; conditions: change in ethane and pentane contents
[4] = tested on: leukocytes; conditions: in vivo
[5] = tested on: hypoxia
[6] = tested on: leukocytes in ischemic tissue; surviving animals
[7] = Summary of experiments on phthaloylhydrazide derivatives; assay type: in vivo; conditions: for pharmacological activity, anti-hypoxic and defensive action: doses of 10 to 300 mg/kg
[8] = tested on: Sprague-Dawley rats; conditions: use to decrease serum cholesterol levels; cited from earlier work
[9] = tested on: brain ischemia (carotid tying) in mice; experiment: Example 4: carotid tying and release in mice; assay type: in vivo; conditions: control mortality 50%
Protocol: We performed experiments on 50 mice of the pyramid by tying the carotid under light anesthesia. After 7 minutes, we released the tie and restored the blood circulation in the ischemic area.

[10] = morphological analysis, test group

With `Nc1cccc2c(=O)[nH][nH]c(=O)c12` [sodium salt of 5-aminophthaloylhydrazide, sodium salt of 5-amino-2,3-dihydrophthalazine-1,2 dione] the “life span of the animals” value [1] was 222 ± 45 s, the “signs of a therapeutic effect” value ([2]; 30 mg/kg i.v.) was “clear signs of a therapeutic effect” and the prevention of death ([2]; 30 mg/kg i.v., p>0.05) was “did not prevent the death of the animals”. The “number of surviving animals” value ([2]; 100 mg/kg and beyond, i.v., p<0.01-0.001) was “increase in the number of surviving animals”, the “damaged area of myocardium” value [2, 10] was “the damaged area could not be perceived visually” and the “necrotic hearths in myocardium” value [2, 10] was “The tiny necrotic hearths were few and diffused”. The “antioxidant action in vivo” value [3] was “antioxidant action in vivo”, the “adhesion capacity of the leukocytes” value [4] was “drop in the adhesion capacity of the leukocytes” and the “anti-hypoxic activity vs antioxidants (Dibunolo, histidine, Organeia, etc.)” value ([5]; 60 to 80 mg) was “exceeds that of antioxidants used thus far in medical practice”. The “anti-hypoxic effect on further dose increase” value ([5]; beyond 100 mg/kg) was “the effect does not basically increase”, the “percentage of surviving animals” value ([6]; experimental group, intravenous, p<0.01) was 80% and the “increase of leukocyte levels in the blood” value ([6]; one time i.v. 150 to 250 mg/kg) was 2.5 times. For the same molecule, the “previously penetrated leukocytes eliminated” value ([6]; one time i.v. 150 to 250 mg/kg, after 6 hours) was 75%.

With dimethyldiaminophthaloylhydrazide the “life span of the animals” value [1] was 89 ± 12 s.

For `O=c1[nH][nH]c(=O)c2ccccc12` [Phthaloylhydrazide, 2,3 dihydrophthalazine-1,4 dione], the “pharmacological activity, anti-hypoxic and defensive action” value (“pharmacological activity” for short) [7] is given as “possess a pronounced pharmacological activity” and the toxicity [8] is given as “certain signs of toxicity”.

With “4,5-amino-2,3- dihydrophthalazine-1,2 dione [4,5-aminophthaloylhydrazide]” the “pharmacological activity” value [7] was “possess a pronounced pharmacological activity”.

For “4-methyl-4,5-diamino-2,3 dihydrophthalazine-1,2 dione”, the “pharmacological activity” value [7] was “possess a pronounced pharmacological activity”.

With `N[C@@H](Cc1c[nH]cn1)C(=O)O` [histidine, reference compound] the prevention of mortality [9] was “not entirely prevented”.

For `Nc1ccc2c(=O)[nH][nH]c(=O)c2c1` [4-aminophthaloylhydrazide], the therapeutic effects ([7]; in vivo) was “major therapeutic effects”.

For `Cc1cc(C(C)(C)C)c(O)c(C(C)(C)C)c1` [Dibunolo, reference compound], the survival rate ([2]; Dibunolo 20% oily solution, 30 mg/kg, p>0.05) was “tendency toward rising survival rates of the animals, but the results obtained were not reliable” and the prevention of mortality [9] was “not entirely prevented”.
